According to patent US9375411B2, “Uses and methods for the treatment of liver diseases or conditions” (Verlyx Pharma Inc., priority 2012, dated 2016):
“And” between values parts separate entries of the source, which are not always exact repeats. Identical values can stand only once.

What was measured:
[1] = Oral bioavailability and biodistribution of pentamidine salts
Method: In this experiment, HCl, isethionate and tosylate salts of pentamidine were administered orally to mice and their PK and tissue accumulations were compared.
PK parameters for pentamidine salt following oral administration of 200 mg/kg in mice.
Biodistribution of Pentamidine Salts in mice, 24 hours after PO administration of 200 mg/kg.

in vivo [2] = conditions: male, Beagle, dog, liver, iv, 4 mg/kg/day
in vivo [3] = conditions: female, Fox Chase SCID CB17, mouse, oral
[4] = test system: chemokines interleukin (IL)-8, GRO alpha and MCP-1; conditions: human whole blood, cited from earlier work
[5] = Repeat dose oral capsule or intravenous infusion pharmacokinetics in blood; type: in vivo, Male Beagle Dogs; conditions: Beagle dogs, 2-h IV 4 mg/kg/day, Day 1, individual animals and Mean
Method: Pharmacokinetics Study in Male Beagle Dogs. Three oral formulations were tested.
In this example, the pharmacokinetics and biodistribution are studied in Male Beagle Dogs. The Dog is a relevant model since the elimination rate from the different organs, mainly the liver, are closer to that observed in man. Three oral formulations were tested and compared to the injectable formulation: […]
The test item dosing formulation was administered once daily as a 2-hour intravenous infusion via the saphenous and/or cephalic vein using an infusion pump, using a temporary peripheral vein catheter attached to a syringe, for 2 consecutive days. The dose volume was 4 mL/kg and the infusion rate was 2 mL/kg/hour for all animals. The actual volume administered to each animal was calculated and adjusted based on the most recent practical body weight of each animal. The catheter was flushed with 0.9% Sodium Chloride for Injection, USP (saline) in order to ensure that the whole intended dose was administered to the animals, after which the temporary catheter was removed and discarded.
The test item was administered twice daily (targeted time: 12 hours apart) by oral capsule administration for 3 consecutive days to fasted animals (at least 4 hours prior to dosing). Food was returned 2 hours post-dose.
The number of capsules to be administered to each animal was fixed to 2 capsules/animals/occasion. If needed, following dosing, the oral cavity was rinsed with an appropriate volume of reverse osmosis water to facilitate swallowing. The oral cavity was inspected following dosing to ensure that the capsules have been swallowed.

[6] = mice, 24 hours after PO 200 mg/kg, listed as Penta-Ise, 200 mg/kg
[7] = mice, oral 200 mg/kg, blood, listed as Isethionate salt, 200 mg/kg
[8] = male, Beagle, dog, iv, 4 mg/kg/day

Question: Which “Tissue Concentration Kidney” value [1, 6] does the source give for `N=C(N)c1ccc(OCCCCCOc2ccc(C(=N)N)cc2)cc1` [pentamidine, pentamidine bis(2-hydroxyethanesulfonate)] here?
Answer: Its value is 5.0 µM.

Question: What about the “Tissue Concentration Liver” value [1, 6] of the same compound?
Answer: Its value is 5.6 µM.

Question: What about the “Tissue Concentration Lung” value [1, 6] of the same compound?
Answer: The value was 2.7 µM.

Question: And the “Tissue Concentration Pancreas” value [1, 6]?
Answer: The value was 1.3 µM.

Question: And the “F*” value ([1]; mice, oral 200 mg/kg, based on the iv AUC at 5 mg/kg of 19.08, listed as Isethionate salt)?
Answer: The value was 3.0.

Question: And the AUCINF [1, 7]?
Answer: Its AUCINF is 23.0 µM·h.

Question: And the Cl/F [1, 7]?
Answer: Its Cl/F is 255 mL/min/kg.

Question: What about the Cmax [1, 7] of the same compound?
Answer: The Cmax was 3060 nM.

Question: What about the MRT [1, 7] of the same compound?
Answer: Its MRT is 52.8 h.

Question: What about the Tmax [1, 7] of the same compound?
Answer: Its Tmax is 3.33 h.

Question: What about the t½ [1, 7] of the same compound?
Answer: Its t½ is 44.5 h.

Question: And the AUC ([1]; mouse, in vivo, iv, 5 mg/kg)?
Answer: Its AUC is 19.1 µM·h.

Question: What about the half-life (in vivo [2]) of the same compound?
Answer: Its half-life is ~672 h.

Question: What about the bioavailability (in vivo [3]) of the same compound?
Answer: The bioavailability was ~1%.

Question: And the “PHA-induced generation of IL-6” value ([4]; 10 microM)?
Answer: Its value is “partial inhibition”.

Question: And the “PHA-induced generation of TNF-alpha, IL-1 beta, IL-2, IL-4, IL-5, IL-10 and IFN-gamma” value ([4]; 10 microM)?
Answer: The value was “no significant inhibitory effect”.

Question: And the “LPS- and PHA-stimulated whole blood generation of chemokines IL-8, GRO alpha, MCP-1” value [4]?
Answer: Its value is “dose-dependently suppress”.

Question: What about the “AUC % Extrap” value ([5]; 4 mg/kg/day) of the same compound?
Answer: Its value is 22.12% and 18.04% and 19.13% and 48.74% and 43.8% and 19.89%.

Question: And the AUCINF ([5]; 4 mg/kg/day)?
Answer: Its AUCINF is 24.54 µM·h and 35.82 µM·h and 9.09 µM·h and 20.95 µM·h and 35.1 µM·h and 17.89 µM·h.

Question: What about the AUClast ([5]; 4 mg/kg/day) of the same compound?
Answer: Its AUClast is 19.11 µM·h and 29.35 µM·h and 7.35 µM·h and 10.74 µM·h and 19.73 µM·h and 14.33 µM·h.

Question: And the CL ([5]; 4 mg/kg/day)?
Answer: Its CL is 8 mL/min/kg and 5.5 mL/min/kg and 21.5 mL/min/kg and 9.33 mL/min/kg and 5.67 mL/min/kg and 11 mL/min/kg.

Question: What about the Cmax ([5]; 4 mg/kg/day) of the same compound?
Answer: The Cmax was 2200 nM and 2160 nM and 1740 nM and 1220 nM.

Question: And the MRTlast ([5]; 4 mg/kg/day)?
Answer: The MRTlast was 45.29 h and 65.59 h and 6.36 h and 18.84 h and 30.73 h and 38.14 h.

Question: What about the Tlast ([5]; 4 mg/kg/day) of the same compound?
Answer: Its Tlast is 120 h and 168 h and 24 h and 48 h and 72 h and 96 h.

Question: What about the Tmax ([5]; 4 mg/kg/day) of the same compound?
Answer: The Tmax was 2 h.

Question: And the Vz ([5]; 4 mg/kg/day)?
Answer: The Vz was 26.52 L/kg and 18.59 L/kg and 22.93 L/kg and 32.19 L/kg and 33.41 L/kg.

Question: What about the t1/2 ([5]; 4 mg/kg/day) of the same compound?
Answer: The t1/2 was 35.23 h.

Question: And the Cmax [5, 8]?
Answer: The Cmax was 1430 nM.

Question: What about the half-life [5, 8] of the same compound?
Answer: The half-life was 47 h.

Question: And the Tmax ([5]; male, Beagle, dog, iv, 4 mg/kg/day, read-out: Tmax)?
Answer: Its Tmax is 1 h.

Question: And the Vd ([5]; male, Beagle, dog, iv, 4 mg/kg/day, read-out: Vz)?
Answer: Its Vd is 32.5 L/kg.

Question: What about the Cmax ([5]; male, dog) of the same compound?
Answer: Its Cmax is 1040 nM.
